How the values were obtained:
Test in all cases: growth inhibition relative to DMSO control (fraction); higher = stronger growth inhibition
Settings in all cases: treatment time: 6 days
PeTa = test system: PeTa
Description: (§1)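 Drug combination matrices: GSK-LSD1 (0, 1, 10, 100 nM) was combined with a second epigenetic drug (0 to 10 uM) on MCC lines PeTa and MKL-1 and on HDFB fibroblasts for 6 days, in quadruplicate. Viability was read by CellTiter-Glo 2.0. The response is the fraction of growth inhibition relative to DMSO, as input to synergyfinder Bliss analysis.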

MKL-1 = test system: MKL-1
Description: as §1

HDFB = test system: HDFB
Description: as §1

c1ccc([C@@H]2C[C@H]2NC2CCNCC2)cc1 [GSK-LSD1] + Nc1ccccc1NC(=O)c1ccc(CNC(=O)OCc2cccnc2)cc1 [Entinostat]
growth inhibition
Settings	partner concentration 0 nM	partner concentration 1 nM	partner concentration 10 nM	partner concentration 100 nM	partner concentration 1000 nM	partner concentration 10000 nM
HDFB, GSK-LSD1 concentration 0 nM	–	0.0329	0.154	0.451	0.823	0.933
HDFB, GSK-LSD1 concentration 1 nM	0.0914	0.124	0.111	0.467	0.822	0.944
HDFB, GSK-LSD1 concentration 10 nM	0.24	0.233	0.246	0.421	0.81	0.947
HDFB, GSK-LSD1 concentration 100 nM	0.259	0.26	0.254	0.473	0.798	0.949
MKL-1, GSK-LSD1 concentration 0 nM	–	0.0232	0.092	0.981	1	1
MKL-1, GSK-LSD1 concentration 1 nM	0.121	0.169	0.164	0.956	1	1
MKL-1, GSK-LSD1 concentration 10 nM	0.421	0.48	0.441	0.961	1	1
MKL-1, GSK-LSD1 concentration 100 nM	0.761	0.745	0.649	0.958	1	1
PeTa, GSK-LSD1 concentration 0 nM	–	-0.000953	0.132	0.963	1	1
PeTa, GSK-LSD1 concentration 1 nM	0.0344	0.0611	0.145	0.975	1	1
PeTa, GSK-LSD1 concentration 10 nM	0.459	0.465	0.561	0.998	1	1
PeTa, GSK-LSD1 concentration 100 nM	0.787	0.776	0.761	0.974	1	1

c1ccc([C@@H]2C[C@H]2NC2CCNCC2)cc1 [GSK-LSD1] + O=C(NC[C@H](O)CN1CCc2ccccc2C1)c1ccnc(NC2CCC2)c1 [GSK591]
growth inhibition
Settings	partner concentration 0 nM	partner concentration 1 nM	partner concentration 10 nM	partner concentration 100 nM	partner concentration 1000 nM	partner concentration 10000 nM
HDFB, GSK-LSD1 concentration 0 nM	–	-0.0108	0.034	0.242	0.285	0.348
HDFB, GSK-LSD1 concentration 1 nM	-0.00486	0.0263	0.00718	0.199	0.324	0.372
HDFB, GSK-LSD1 concentration 10 nM	0.0391	0.0408	0.0239	0.215	0.342	0.42
HDFB, GSK-LSD1 concentration 100 nM	0.0873	0.0906	0.093	0.285	0.355	0.44
MKL-1, GSK-LSD1 concentration 0 nM	–	0.00697	0.0188	0.133	0.269	0.324
MKL-1, GSK-LSD1 concentration 1 nM	0.144	0.148	0.163	0.253	0.423	0.432
MKL-1, GSK-LSD1 concentration 10 nM	0.46	0.501	0.536	0.626	0.773	0.789
MKL-1, GSK-LSD1 concentration 100 nM	0.733	0.769	0.754	0.771	0.894	0.849
PeTa, GSK-LSD1 concentration 0 nM	–	-0.0144	-0.0251	0.0642	0.125	0.21
PeTa, GSK-LSD1 concentration 1 nM	0.11	0.135	0.102	0.201	0.287	0.302
PeTa, GSK-LSD1 concentration 10 nM	0.615	0.624	0.611	0.64	0.731	0.679
PeTa, GSK-LSD1 concentration 100 nM	0.761	0.746	0.73	0.779	0.866	0.797
